Patent US20070167353A1, “PRODRUG COMPOSITION” (priority 2003, published 2007)

Assays:
vaccinia virus = assay: microbe, parasite or virus in culture; format: cell-based; details: for IC50: HFF cells, 3 days, read-out: Vaccinia Plaque Reduction (IC50)
[1] = molecular target: T1, biphenyl hydrolase-like enzyme (BPHL) (Homo sapiens, UniProt Q86WA6); format: biochemical
T1 sequence (Q86WA6 38-291): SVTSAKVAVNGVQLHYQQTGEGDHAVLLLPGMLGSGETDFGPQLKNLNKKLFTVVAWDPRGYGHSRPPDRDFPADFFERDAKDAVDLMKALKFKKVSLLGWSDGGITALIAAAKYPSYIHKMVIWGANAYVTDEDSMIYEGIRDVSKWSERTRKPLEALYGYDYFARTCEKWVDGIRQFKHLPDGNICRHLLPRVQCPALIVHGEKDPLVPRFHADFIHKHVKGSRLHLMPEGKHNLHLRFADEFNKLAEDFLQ

HPEPT1 [2] = molecular target: T2, HPEPT1 (Homo sapiens, UniProt P46059); details: for Uptake (hPepT1): HeLa cells overexpressing HPEPT1, 50 micromolar, pH 6.0, 45 minutes; for hPepT1/Control: ratio of uptake in hPepT1 cells versus control cells
T2 sequence (P46059 1-708): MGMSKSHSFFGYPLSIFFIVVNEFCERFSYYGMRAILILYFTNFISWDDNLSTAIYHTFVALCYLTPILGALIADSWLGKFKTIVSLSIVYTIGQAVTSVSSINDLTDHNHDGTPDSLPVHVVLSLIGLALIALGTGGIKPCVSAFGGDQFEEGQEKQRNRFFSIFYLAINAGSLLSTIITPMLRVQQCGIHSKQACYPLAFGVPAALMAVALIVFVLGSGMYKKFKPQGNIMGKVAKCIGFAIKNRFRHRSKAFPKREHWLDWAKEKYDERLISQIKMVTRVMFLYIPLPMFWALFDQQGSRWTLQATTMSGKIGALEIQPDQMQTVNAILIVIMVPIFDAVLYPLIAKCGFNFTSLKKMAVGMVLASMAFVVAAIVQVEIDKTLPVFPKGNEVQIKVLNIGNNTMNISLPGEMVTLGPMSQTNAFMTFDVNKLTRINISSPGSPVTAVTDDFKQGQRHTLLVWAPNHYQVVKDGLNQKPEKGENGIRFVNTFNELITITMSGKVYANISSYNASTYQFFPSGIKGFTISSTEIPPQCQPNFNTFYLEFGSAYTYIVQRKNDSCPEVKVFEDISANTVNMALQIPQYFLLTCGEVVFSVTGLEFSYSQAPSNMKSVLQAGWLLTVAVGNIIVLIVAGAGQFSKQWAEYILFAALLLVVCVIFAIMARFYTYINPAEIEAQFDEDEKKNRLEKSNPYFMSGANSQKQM

HPEPT1 [3] = molecular target: T2, HPEPT1; assay: Inhibition of radiolabelled Gly-Sar uptake in DC5 cells overexpressing HPEPT1; format: cell-based; design: expressed in transfected cells; host or cells: HeLa cells overexpressing hPEPT1 (called 'HPEPT1 infected cells'); details: inhibition of Gly-Sar uptake, DC5 cells overexpressing HPEPT1, 10 min, 37° C.; read-out: DC5 IC50
Description: Amino acid prodrugs are tested for their interaction with the dipeptide transporter, HPEPT1, using tissue culture cells that are engineered to overexpress HPEPT1. In this example, the cells that overexpress HPEPT1, termed DC5, are a human meduloblastoma cell line that is stably transfected with a eukaryotic expression vector encoding HPEPT1. […] DC5 cells are plated at a density of 12,000 cells/well in 96-well tissue culture plates and allowed to grow for 2 days. The cells are washed once with 200 microliters of uptake buffer and aspirated. The plates are cooled to 4° C. and 25 ul of uptake buffer containing 125 nanomoles Gly-Sar (at a specific activity of 1 microcurie/micromole) is added. The uptake buffer also contains the prodrugs to be tested at concentrations ranging from 10 micromolar to 20 millimolar. The assay is initiated by placing the plate in a shaking water bath at 37° C. and is terminated after 10 min by rapid washing with multiple changes of 4° C. phosphate buffered saline (PBS). The radioactive Gly-Sar peptide that is transported by the hpept1 is extracted from the cell layer with 200 ul of a one to one mixture of methanol and water and is counted in 4 ml of CytoScint ES™ scintillation cocktail (ICN). The data are plotted as % Gly-Sar uptake of control (no competitive substrate) versus the competitive substrate concentration. […] Typically, values that are below 10 mM indicate that the drug interacts with transporter.

[4] = Intestinal absorption after direct duodenal injection in anesthetized rats, plasma by LC/MS/MS; details: for plasma Ara A levels after dosing (in words) / prodrug absorption / prodrug concentrations in systemic plasma (in words): rat, duodenal injection
Description: The systemic plasma profiles of the prodrug, Ara A, and its main metabolite, Ara H are then monitored by removing plasma from a jugular vein cannula over a 4 hour period and assaying by LC/MS/MS assay.
Animals were dosed with Ara A at a level of 1.5 mg/rat via direct duodenal injection into anesthetized rats (n=2 per compound). Plasma samples were taken from the jugular vein at 0, 1, 2, and 4 hours from the jugular vein and were assayed for Ara A (▪), and Ara H (♦) by LC/MS/MS.
Animals were dosed with 5′-O-L isoleucyl Ara A prodrug at a level of 2.7 mg/rat via direct duodenal injection into anesthetized rats (n=3 per compound). Plasma samples were taken from the jugular vein at 0, 0.5, 1, 2, and 4 hours from the jugular vein and were assayed for prodrug (□), Ara A (▪), and Ara H (♦) by LC/MS/MS.
(§1) FIG. 6 is a graph showing mean plasma profiles of Ara A, Ara H, and 5′-O-D Isoleucyl Ara A after administration of 5′-O-D Isoleucyl Ara A into the duodenum of a rat. Animals were dosed with 5′-O-D Isoleucyl Ara A prodrug at a level of 2.7 mg/rat via direct duodenal injection into anesthetized rats (n=2). Plasma samples were taken from the jugular vein at 0, 0.5, 1, 2, and 4 hours from the jugular vein and were assayed for prodrug (□), Ara A (▪), and Ara H (♦) by LC/MS/MS.
as §1, with “7” for “6”, “5′-O-L Valyl” for “5′-O-D Isoleucyl”, “3” for “2.7”
as §1, with “FIG. 8” for “FIG. 6”, “5′-O-D Valyl” for “5′-O-D Isoleucyl”, “of 3.0” for “of 2.7”, “rats (n=3).” for “rats (n=2).”, “and ara” for “and Ara”
as §1, with “9” for “6”, “5′-O-Glycyl” for “5′-O-D Isoleucyl”, “3.0” for “2.7”

KB cell = KB cell cytotoxicity; details: read-out: KB cell cytotoxicity (IC50)
[5] = molecular target: T3, human dipeptide transporter, hPept1 (Homo sapiens, UniProt P46059)
T3 sequence (P46059 1-708): T2 sequence (P46059 1-708)

SMILES	% of Control (VACV) [1] [%]	Uptake (hPepT1) (HPEPT1 [2]) [nmole/mg/45 min]	hPepT1/Control (HPEPT1 [2])	IC50 (HPEPT1 [3]) [µM]	other results
OC[C@H]1O[C@@H](n2cnc3c2N=CNC[C@H]3O)C[C@@H]1O [2′-deoxycoformycin, reference compound]					effect on virus replication (vaccinia virus; 2′-deoxycoformycin alone at 1 micromolar): no effect on virus replication
N[C@@H](Cc1ccccc1)C(=O)OC[C@H]1O[C@@H](n2cc(F)c(=O)[nH]c2=O)C[C@@H]1OC(=O)[C@@H](N)Cc1ccccc1 [3′,5′-di-O-phenylalanyl-Floxuridine]	8.9	2.96 ± 0.13	9.53	2780	
CC(C)C(N)C(=O)OC[C@H]1O[C@@H](n2cc(F)c(=O)[nH]c2=O)C[C@@H]1OC(=O)C(N)C(C)C (stereo partly shown) [3′,5′-di-O-valyl-Floxuridine]	1.7	2.78 ± 0.37	5.18	1600	
NC(CC(=O)O)C(=O)OC1CC(n2cc(F)c(=O)[nH]c2=O)OC1CO (stereo not shown) [3′-O-aspartyl-Floxuridine]	2.0			10500	
NC(Cc1ccccc1)C(=O)O[C@H]1C[C@H](n2cc(F)c(=O)[nH]c2=O)O[C@@H]1CO (stereo partly shown) [3′-O-phenylalanyl-Floxuridine]	24.4	0.83 ± 0.19	2.56	3480	
CC(C)[C@H](N)C(=O)O[C@H]1C[C@H](n2cc(F)c(=O)[nH]c2=O)O[C@@H]1CO [3′-O-valyl-Floxuridine]	3.3	1.35 ± 0.13	1.03	980	
CC[C@@H](C)[C@@H](N)C(=O)OC[C@H]1O[C@@H](n2cnc3c(N)ncnc32)[C@@H](O)[C@@H]1O [5′-O-D-isoleucyl Ara A]					IC50 (vaccinia virus): 3 µM; plasma Ara A levels after dosing (in words) [4]: increased levels of plasma Ara A; IC50 (KB cell): > 100 µM
CC(C)[C@@H](N)C(=O)OC[C@H]1O[C@@H](n2cnc3c(N)ncnc32)[C@@H](O)[C@@H]1O [5′-O-D-valyl Ara A]					IC50 (vaccinia virus): 3.5 µM; AUC0-4 hr of Prodrug ([4]; rat plasma, duodenal injection of the named prodrug): 637 ± 74 ng·h/mL; plasma Ara A levels after dosing (in words) [4]: Increased levels of plasma Ara A; prodrug absorption / prodrug concentrations in systemic plasma (in words) [4]: extended and enhanced concentrations of the prodrug in systemic plasma; IC50 (KB cell): > 100 µM
C[C@H](N)C(=O)NCC(=O)OC[C@H]1O[C@@H](n2cnc3c(N)ncnc32)[C@@H](O)[C@@H]1O [5′-O-L-alagly Ara A]					hPepT1/Control [5]: 1.48
Nc1ncnc2c1ncn2[C@@H]1O[C@H](COC(=O)[C@@H](N)CC(=O)O)[C@@H](O)[C@@H]1O [5′-O-L-aspartyl Ara A]					IC50 (vaccinia virus): 7 µM; hPepT1/Control [5]: 1.27; HeLa/hPEPT1 uptake ([5]; pH 6): 5.0 ± 0.2; IC50 (KB cell): 60 µM
NC(CC(=O)O)C(=O)OCC1OC(n2cc(F)c(=O)[nH]c2=O)CC1O (stereo not shown) [5′-O-aspartyl-Floxuridine]	2.3			8300	
NCC(=O)OC[C@H]1O[C@@H](n2cnc3c(N)ncnc32)[C@@H](O)[C@@H]1O [5′-O-glycyl Ara A]					IC50 (vaccinia virus): 15 µM; plasma Ara A levels after dosing (in words) [4]: relatively low plasma levels; prodrug absorption / prodrug concentrations in systemic plasma (in words) [4]: limited intestinal absorption of the prodrug; IC50 (KB cell): > 100 µM
N[C@@H](Cc1ccccc1)C(=O)OC[C@H]1O[C@@H](n2cc(F)c(=O)[nH]c2=O)C[C@@H]1O [5′-O-phenylalanyl-Floxuridine]	52.8	1.58 ± 0.20	12.34	3700	
CC(C)[C@H](N)C(=O)OC[C@H]1O[C@@H](n2cc(F)c(=O)[nH]c2=O)C[C@@H]1O [5′-O-valyl-Floxuridine]	91.1	3.42 ± 0.09	19.24	1170	
